# Results from US6355799B1, “Substituted benzene compounds, process for their preparation, and herbicidal and defoliant compositions containing them” (ISK Americas Incorporated, priority 1997, dated 2002).
# Tests used:
# Assay type in all cases: in vivo
# [1] = system: upland rice (Oryza sp., var. Tebonnet, RICE); assay: Post-emerge test, crop safety; details: post-emerge, 14 days after application, rating scale 0-100
# Summary of the method: (§1)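 Rating: 0–100 visual injury, 14 DAA. Application: acetone, 187 l/ha, 15–1000 g ai/ha, flat-fan track sprayer with nozzle 40–45 cm above soil or canopy. Post-emerge runs used 0.25% v/v surfactant on 2–3 leaf plants.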
# [2] = system: field corn (Zea mays L., var. Dekalb 535, CORN); assay: Post-emerge test, crop safety; details: post-emerge, 14 days after application, rating scale 0-100
# Summary of the method: as §1
# [3] = system: upland rice (Oryza sp., var. Tebonnet, RICE); assay: Pre-emerge test, crop safety; details: pre-emerge, 14 days after application, rating scale 0-100
# Summary of the method: (§2)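 Herbicidal damage is scored 0 (none) to 100 (complete plant death) two weeks after a simulated field spray. Rates span 15–1000 g ai/ha, delivered in acetone at 187 l/ha. For post-emergence treatments, plants have 2–3 leaves and the spray carries 0.25% v/v non-ionic surfactant.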
# [4] = system: field corn (Zea mays L., var. Dekalb 535, CORN); assay: Pre-emerge test, crop safety; details: pre-emerge, 14 days after application, rating scale 0-100
# Summary of the method: as §2
# [5] = system: lambsquarters (Chenopodium album, CHEAL); assay: Pre-emerge test, greenhouse herbicide activity screening; details: pre-emerge, 14 days after application, rating scale 0-100
# Summary of the method: (§3)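 Compounds in acetone were track-sprayed at 15–1000 g ai/ha: pre-emergence onto soil sown the previous day, then top-watered to incorporate and later bottom-watered; post-emergence onto 2–3 leaf plants with 0.25% v/v surfactant, bottom-watered only. Ratings on a 0–100 phytotoxicity scale were taken at day 14.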
# [6] = system: ivyleaf morningglory (Ipomoea hederacea, IPOHE); assay: as above; details: pre-emerge, 14 days after application, rating scale 0-100
# Summary of the method: as §3
# [7] = system: barnyardgrass (Echinochloa crus-galli, ECHCG); assay: as above; details: pre-emerge, 14 days after application, rating scale 0-100
# Summary of the method: as §3
# [8] = system: green foxtail (Setaria viridis, SETVI); assay: as above; details: pre-emerge, 14 days after application, rating scale 0-100
# Summary of the method: as §3
# [9] = system: large crabgrass (Digitaria sanguinalis, DIGSA); assay: as above; details: pre-emerge, 14 days after application, rating scale 0-100
# Summary of the method: as §3
# [10] = system: velvetleaf (Abutilon theophrasti, ABUTH); assay: as above; details: pre-emerge, 14 days after application, rating scale 0-100
# Summary of the method: as §3
# [11] = system: sicklepod (Cassia obtusifolia, CASOB); assay: as above; details: pre-emerge, 14 days after application, rating scale 0-100
# Summary of the method: as §3
# [12] = system: johnsongrass (Sorghum halepense, SORHA); assay: as above; details: pre-emerge, 14 days after application, rating scale 0-100
# Summary of the method: as §3
# [13] = system: redroot pigweed (Amaranthus retroflexus, AMARE); assay: as above; details: pre-emerge, 14 days after application, rating scale 0-100
# Summary of the method: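 Plants grown in 10 cm pots of sandy loam mix received acetone-dissolved compounds through a moving flat-fan nozzle. Doses ranged from 15 to 1000 g ai/ha. Pre-emerge pots were seeded one day earlier, post-emerge pots 8–21 days earlier. Fourteen days on, each pot was graded 0–100 for damage.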
# [14] = system: lambsquarters (Chenopodium album, CHEAL); assay: Post-emerge test, greenhouse herbicide activity screening; details: post-emerge, 14 days after application, rating scale 0-100
# Summary of the method: (§4)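 Visual ratings on a 0-100 scale (0 no damage, 100 all plants dead) were taken at 14 days after treatment. Rates of 15-1000 g ai/ha in acetone, 187 l/ha, were sprayed onto soil one day after planting (pre-emerge) or onto 2-3 leaf plants with 0.25% v/v surfactant (post-emerge).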
# [15] = system: ivyleaf morningglory (Ipomoea hederacea, IPOHE); assay: as above; details: post-emerge, 14 days after application, rating scale 0-100
# Summary of the method: as §4
# [16] = system: barnyardgrass (Echinochloa crus-galli, ECHCG); assay: as above; details: post-emerge, 14 days after application, rating scale 0-100
# Summary of the method: as §4
# [17] = system: redroot pigweed (Amaranthus retroflexus, AMARE); assay: as above; details: post-emerge, 14 days after application
# Summary of the method: as §4
# [18] = system: green foxtail (Setaria viridis, SETVI); assay: as above; details: post-emerge, 14 days after application, rating scale 0-100
# Summary of the method: as §4
# [19] = system: large crabgrass (Digitaria sanguinalis, DIGSA); assay: as above; details: post-emerge, 14 days after application, rating scale 0-100
# Summary of the method: as §4
# [20] = system: velvetleaf (Abutilon theophrasti, ABUTH); assay: as above; details: post-emerge, 14 days after application, rating scale 0-100
# Summary of the method: as §4
# [21] = system: sicklepod (Cassia obtusifolia, CASOB); assay: as above; details: post-emerge, 14 days after application, rating scale 0-100
# Summary of the method: as §4
# [22] = system: johnsongrass (Sorghum halepense, SORHA); assay: as above; details: post-emerge, 14 days after application, rating scale 0-100
# Summary of the method: as §4
structure (smiles),measurement,setting,value
Cn1c(C(F)(F)F)cc(=O)n(-c2ccc(Cl)cc2/C=C/c2ccc3ccccc3c2)c1=O [14-59],Post-emerge Herbicidal Activity RICE (crop damage rating),[1]; 63 g ai/ha,0
same,Post-emerge Herbicidal Activity RICE (crop damage rating),[1]; 250 g ai/ha,0
same,Post-emerge Herbicidal Activity CORN (crop damage rating),[2]; 63 g ai/ha,0
same,Post-emerge Herbicidal Activity CORN (crop damage rating),[2]; 250 g ai/ha,0
same,phytotoxicity rating RICE,[3]; 63 g ai/ha,0
same,phytotoxicity rating RICE,[3]; 250 g ai/ha,0
same,phytotoxicity rating CORN,[4]; 63 g ai/ha,0
same,phytotoxicity rating CORN,[4]; 250 g ai/ha,0
same,phytotoxicity rating CHEAL,[5]; 63 g ai/ha,40
same,phytotoxicity rating CHEAL,[5]; 250 g ai/ha,0
same,phytotoxicity rating IPOHE,[6]; 63 g ai/ha,0
same,phytotoxicity rating IPOHE,[6]; 250 g ai/ha,0
same,phytotoxicity rating ECHCG,[7]; 63 g ai/ha,0
same,phytotoxicity rating ECHCG,[7]; 250 g ai/ha,0
same,phytotoxicity rating SETVI,[8]; 63 g ai/ha,0
same,phytotoxicity rating SETVI,[8]; 250 g ai/ha,0
same,phytotoxicity rating DIGSA,[9]; 63 g ai/ha,0
same,phytotoxicity rating DIGSA,[9]; 250 g ai/ha,0
same,phytotoxicity rating ABUTH,[10]; 63 g ai/ha,0
same,phytotoxicity rating ABUTH,[10]; 250 g ai/ha,0
same,phytotoxicity rating CASOB,[11]; 63 g ai/ha,0
same,phytotoxicity rating CASOB,[11]; 250 g ai/ha,0
same,phytotoxicity rating SORHA,[12]; 63 g ai/ha,0
same,phytotoxicity rating SORHA,[12]; 250 g ai/ha,0
same,phytotoxicity rating AMARE,[13]; 63 g ai/ha,0
same,phytotoxicity rating AMARE,[13]; 250 g ai/ha,0
same,Post-emerge Herbicidal Activity CHEAL (phytotoxicity rating),[14]; 63 g ai/ha,10
same,Post-emerge Herbicidal Activity CHEAL (phytotoxicity rating),[14]; 250 g ai/ha,10
same,Post-emerge Herbicidal Activity IPOHE (phytotoxicity rating),[15]; 63 g ai/ha,30
same,Post-emerge Herbicidal Activity IPOHE (phytotoxicity rating),[15]; 250 g ai/ha,30
same,Post-emerge Herbicidal Activity ECHCG (phytotoxicity rating),[16]; 63 g ai/ha,0
same,Post-emerge Herbicidal Activity ECHCG (phytotoxicity rating),[16]; 250 g ai/ha,0
same,Post-emerge Herbicidal Activity AMARE (phytotoxicity rating),"[17]; 63 g ai/ha, rating scale 0-100 (0 no damage, 100 complete death)",20
same,Post-emerge Herbicidal Activity AMARE (phytotoxicity rating),"[17]; 250 g ai/ha, rating scale 0-100",20
same,Post-emerge Herbicidal Activity SETVI (phytotoxicity rating),[18]; 63 g ai/ha,0
same,Post-emerge Herbicidal Activity SETVI (phytotoxicity rating),[18]; 250 g ai/ha,0
same,Post-emerge Herbicidal Activity DIGSA (phytotoxicity rating),[19]; 63 g ai/ha,0
same,Post-emerge Herbicidal Activity DIGSA (phytotoxicity rating),[19]; 250 g ai/ha,0
same,Post-emerge Herbicidal Activity ABUTH (phytotoxicity rating),[20]; 63 g ai/ha,50
same,Post-emerge Herbicidal Activity ABUTH (phytotoxicity rating),[20]; 250 g ai/ha,30
same,Post-emerge Herbicidal Activity CASOB (phytotoxicity rating),[21]; 63 g ai/ha,0
same,Post-emerge Herbicidal Activity CASOB (phytotoxicity rating),[21]; 250 g ai/ha,10
same,Post-emerge Herbicidal Activity SORHA (phytotoxicity rating),[22]; 63 g ai/ha,0
same,Post-emerge Herbicidal Activity SORHA (phytotoxicity rating),[22]; 250 g ai/ha,0
